Measurements as given in publication PMC5562305, “Impact of novel palmitoylated prolactin-releasing peptide analogs on metabolic changes in mice with diet-induced obesity” (PLoS ONE, 2017).
Several values for one entry are separate records, joined by “and”; a condition that tells them apart may be missing. Identical values can stand only once. Starred links: 1 amine or outer side, 2 acyl side, 3 side chain; linkers in the order of their positions; H or OH if unused. Residues, ends and D or L forms follow the SMILES beside them. Groups on a side chain read outwards from the residue. *: point of attachment. TTDA(Palmitoyl) = CCCCCCCCCCCCCCCC(=O)NCCCOCCOCCOCCCN*; Suc = O=C(CCC(=O)[*:2])[*:1]

How the values were obtained:
[1] = Body weight of DIO mice during 2-week SC treatment; assay type: in vivo, C57BL/6 mice; conditions: two weeks of SC treatment, 5 mg/kg twice a day, in words
Text: (§1) Inbred C57BL/6 male mice that were 3 weeks old were obtained from Charles River Laboratories (Sulzfeld, Germany). […] From 8 weeks of age, the mice were fed in house made high-fat (HF) diet to induce obesity. […] After twelve weeks of HF-diet feeding, two weeks of SC administration of lipidized PrRP analogs was initiated while the mice were kept on the HF diet. The following experimental groups were established: […] Food intake and BW were monitored daily during the dosing period.

human NPFF2 = target: T1, human NPFF2 (Homo sapiens, UniProt Q9Y5X5); experiment: Competitive binding of 125I-1DMe to human NPFF2 receptor membranes
T1 construct: purchased Perkin Elmer; host or cells: CHO-K1 cell membranes
T1 sequence (Q9Y5X5 whole entry): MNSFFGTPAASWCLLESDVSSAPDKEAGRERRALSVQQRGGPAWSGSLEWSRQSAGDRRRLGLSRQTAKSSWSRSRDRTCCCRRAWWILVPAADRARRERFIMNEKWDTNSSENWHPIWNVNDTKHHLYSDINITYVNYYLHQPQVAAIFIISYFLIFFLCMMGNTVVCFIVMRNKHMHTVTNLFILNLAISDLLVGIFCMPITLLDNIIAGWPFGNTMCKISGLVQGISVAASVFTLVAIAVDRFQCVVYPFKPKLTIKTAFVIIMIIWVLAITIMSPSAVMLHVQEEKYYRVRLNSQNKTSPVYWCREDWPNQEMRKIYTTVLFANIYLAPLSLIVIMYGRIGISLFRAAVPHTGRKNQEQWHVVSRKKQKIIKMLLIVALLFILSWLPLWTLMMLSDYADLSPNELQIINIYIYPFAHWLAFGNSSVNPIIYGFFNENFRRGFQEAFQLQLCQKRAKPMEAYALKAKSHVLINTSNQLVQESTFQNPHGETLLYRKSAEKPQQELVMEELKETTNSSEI
Protocol: (§2) CHO-K1 cells expressing the GPR10 receptor (Thermo Fisher Scientific Inc., Waltham, MA, USA) were grown according to the manufacturer's instructions. Saturation and competitive binding experiments were performed according to the methods of Motulsky and Neubig. […] The experiments were performed on plated cells that were incubated for 60 min at 25°C. Non-specific binding was determined using 10^−5 M PrRP31. The binding assays involving human NPFF2 receptor membranes obtained from Perkin Elmer were performed as described in [18].
(§3) Data are presented as the means ± SEM. The competitive binding curves were plotted using GraphPad software (San Diego, CA, USA), and the best fits were compared for single-binding-site models (IC50 values were obtained from nonlinear regression analysis). Inhibition constants (Ki) were calculated from the IC50 values using the Cheng-Prusoff equation [23]. The concentration of the radioligand was 0.1 nM for cell membranes of CHO-K1 cells overexpressing NPFF2 and 0.03 nM for CHO-K1 cells overexpressing GPR10.

GPR10 [2] = target: T2, GPR10 (Homo sapiens, UniProt P49683); experiment: Beta-lactamase-dependent FRET assay (bla reporter gene) in CHO-K1 cells overexpressing GPR10; assay type: cell-based; parameters: expressed in transfected cells; host or cells: CHO-K1; conditions: CHO-K1 cells; mean ± SEM of at least three experiments; SEM; read-out: Activation of bla reporter gene in GPR10 overexpressing cells, EC50
T2 sequence (P49683 1-370): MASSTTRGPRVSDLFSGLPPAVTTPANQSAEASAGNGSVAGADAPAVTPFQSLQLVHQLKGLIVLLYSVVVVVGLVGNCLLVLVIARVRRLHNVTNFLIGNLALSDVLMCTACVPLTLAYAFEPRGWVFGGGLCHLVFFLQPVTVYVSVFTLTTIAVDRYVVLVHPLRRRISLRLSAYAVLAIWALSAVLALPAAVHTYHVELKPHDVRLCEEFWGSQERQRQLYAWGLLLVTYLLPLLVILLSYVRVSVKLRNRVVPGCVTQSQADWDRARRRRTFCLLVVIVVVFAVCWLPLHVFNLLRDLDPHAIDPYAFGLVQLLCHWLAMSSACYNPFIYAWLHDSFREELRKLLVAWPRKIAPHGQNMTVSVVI
Protocol: CHO-K1 cells overexpressing GPR10 were plated at 40,000 cells/well in 128 μl of assay medium (DMEM containing 10% dialyzed FBS, 0.1 mM NEAA, 25 mM HEPES, 1% penicillin/streptomycin, and 2 mM L-glutamine) in a 96-well plate and were incubated for 20 h at 37°C/5% CO2. The assay was performed according to the manufacturer's protocol.
The results from the lactamase assay were analyzed using nonlinear regression by log agonist vs. response using GraphPad software.

GPR10 [3] = target: T2, GPR10; experiment: Competitive binding of 125I-human PrRP31 to plated CHO-K1 cells expressing GPR10; parameters: host or cells: CHO-K1
Protocol: as §2, §3

[4] = Adipose tissue and liver weights in DIO mice at the end of the experiment; assay type: in vivo, C57BL/6 mice; conditions: 5 mg/kg SC twice a day, 2 weeks, n = 10, mean ± SEM
Text: (§4) From 8 weeks of age, the mice were fed in house made high-fat (HF) diet to induce obesity. […] After twelve weeks of HF-diet feeding, two weeks of SC administration of lipidized PrRP analogs was initiated while the mice were kept on the HF diet. The following experimental groups were established: […] Food intake and BW were monitored daily during the dosing period. At the end of the experiment, the mice were sacrificed by decapitation. The trunk blood was collected, and the blood plasma was separated and stored at -20°C. The visceral adipose tissues (VAT) (from abdominal part), subcutaneous adipose tissues (SCAT) (all adipose tissue depots under the skin), perirenal adipose tissues, interscapular brown adipose tissues (BAT), and livers of all of the mice were dissected, weighed, flash-frozen in liquid nitrogen, and stored at -70°C for later extraction of RNA.

[5] = Hormonal and biochemical (metabolic) parameters in blood of DIO mice; assay type: in vivo, C57BL/6 mice; conditions: mean ± SEM
Text: as §4, with “RNA. The plasma insulin concentrations were measured using an RIA assay (Millipore, St. Charles, MI, USA), and the leptin concentrations were determined by ELISA (Millipore, St. Charles, MI, USA). The blood glucose levels were measured using a Glucocard glucometer (Arkray, Kyoto, Japan). The plasma triglyceride levels were measured using a quantitative enzymatic reaction (Sigma, St. Louis, MO, USA), and the free fatty acids (FFA) levels were determined using a colorimetric assay (Roche, Mannheim, Germany). Cholesterol was determined by colorimetric assay (Erba Lachema, Brno, Czech Republic). All measurements were performed according to the manufacturer's instructions.” for “RNA.”

[6] = Cumulative food intake of DIO mice during 2-week SC treatment; assay type: in vivo, C57BL/6 mice; conditions: two weeks of SC treatment, 5 mg/kg twice a day, in words
Text: as §1

[7] = Ki relative to human PrRP31 = 100
[8] = plasma, 5 mg/kg SC twice a day, 2 weeks

Q: Which results are given for `CCCCCCCCCCCCCCCC(=O)NCCCOCCOCCOCCCNC(=O)CCC(=O)NCCCC[C@H](NC(=O)[C@@H](NC(=O)[C@H](CCC(=O)O)NC(=O)[C@H](CCSC)NC(=O)[C@H](CO)NC(=O)[C@H](Cc1c[nH]cn1)NC(=O)[C@H](CCCNC(=N)N)NC(=O)[C@H](Cc1c[nH]cn1)NC(=O)[C@@H](NC(=O)[C@H](CCCNC(=N)N)NC(=O)[C@H](CO)NC(=O)CCC(=O)NCCCOCCOCCOCCCNC(=O)CCCCCCCCCCCCCCC)[C@@H](C)O)[C@@H](C)CC)C(=O)N[C@H](C(=O)N1CCC[C@H]1C(=O)N[C@@H](CC(=O)O)C(=O)N[C@H](C(=O)N[C@@H](CC(N)=O)C(=O)N1CCC[C@H]1C(=O)N[C@@H](C)C(=O)N[C@@H](Cc1c[nH]c2ccccc12)C(=O)N[C@@H](Cc1ccc(O)cc1)C(=O)N[C@@H](C)C(=O)N[C@@H](CO)C(=O)N[C@@H](CCCNC(=N)N)C(=O)NCC(=O)N[C@H](C(=O)N[C@@H](CCCNC(=N)N)C(=O)N1CCC[C@H]1C(=O)N[C@H](C(=O)NCC(=O)N[C@@H](CCCNC(=N)N)C(=O)N[C@@H](Cc1ccccc1)C(N)=O)C(C)C)[C@@H](C)CC)[C@@H](C)CC)[C@@H](C)O` [analog 3] ({TTDA(Palmitoyl)-Suc}-SRTHRHSMEIK([Suc-TTDA(Palmitoyl)])TPDINPAWYASRGIRPVGRF-NH2)?
A: Effect on BW [1]: did not have any significant effects; % binding human PrRP31 (NPFF2) (human NPFF2; [7]): 580%; Ki (human NPFF2; average of the single experiments): 8.63 nM; EC50 (GPR10 [2]): 0.284 ± 0.054 nM; Ki (GPR10 [3]; CHO-K1 cells, 0.03 nM radioligand, 60 min 25°C, Cheng-Prusoff, mean ± SEM of at least three experiments, SEM): 32.4 ± 3.57 nM; % binding human PrRP31 (GPR10) (GPR10 [3]; [7]): 14%; 125I-human PrRP31 binding to human GPR10, Ki (GPR10 [3]; single experiments (replicates listed below each other)): 39 nM and 26.7 nM and 31.5 nM; Liver weight [4]: 1.58 ± 0.09 g; Perirenal AT [4]: 3.09 ± 0.16 % of BW; Total AT [4]: 16.13 ± 0.38 % of BW; Glucose ([5]; blood, 5 mg/kg SC twice a day, 2 weeks): 7.91 ± 0.46 mmol/L; HOMA index ([5]; fasting glucose x fasting insulin / 22.5, 2 weeks): 163.13 ± 1.06; FFA [5, 8]: 0.62 ± 0.03 mmol/L; Insulin [5, 8]: 2.69 ± 0.30 ng/mL; Leptin [5, 8]: 40.30 ± 5.57 ng/mL; T Chol (total cholesterol) [5, 8]: 4.86 ± 0.17 mmol/L; Triglycerides [5, 8]: 0.63 ± 0.05 mg/mL; Food intake compared to the saline-treated control group [6]: did not have any significant effects
